In patent US20210087191A1, “SUBSTITUTED 3-ISOBUTYL-9,10-DIMETHOXY-1,3,4,6,7,11B-HEXAHYDRO-2H-PYRIDO[2,1-a]ISOQUINOLIN-2-OL COMPOUNDS, THEIR [sequence], AND USE THEREOF” (DISPERSOL TECHNOLOGIES, LLC, priority 2020, published 2021):
Converted amounts (≈) assume the structure as drawn. Read-outs that look alike come from different tables or passages of the source.

What was measured:
[1] = Metabolic stability in human liver microsomes (LM), LC-MS/MS (first table); assay type: in vitro ADME; conditions: for microsomal CLint: Table 1, read-out: Human LM CLint (μL/min/mg protein); for half-life: Table 1, read-out: Human LM t1/2
Method: (§1) Metabolism of compound(s) to release (+)-α-DTHBZ was determined by the half-life (t1/2) and intrinsic clearance (CIint) in human plasma (PS) and liver microsomes (LM) using tandem mass spectrometry (LC-MS/MS).

[2] = Stability in human plasma (PS), LC-MS/MS; assay type: in vitro ADME; conditions: for half-life: read-out: Human PS t1/2
Method: as §1

[3] = LM stability assay, human (second table); assay type: in vitro ADME; conditions: human liver microsomes, Table 2; for microsomal CLint: read-out: LM stability assay Human Clint (μL/min/mg protein); for half-life: read-out: LM stability assay Human t1/2
Method: Metabolism of compound(s) to release (+)-α-DTHBZ was determined by the half-life (t1/2) and intrinsic clearance (CIint) in human liver microsomes (LM) using tandem mass spectrometry (LC-MS/MS).

[4] = Heps. stability assay, human cryopreserved hepatocytes; assay type: in vitro ADME; conditions: for microsomal CLint: read-out: Heps. stability assay Human Clint (μL/min/mg protein); for half-life: read-out: Heps. stability assay Human t1/2
Method: Metabolism of compound(s) to release (+)-α-DTHBZ was determined by the half-life (t1/2) and intrinsic clearance (CIint) in human cryopreserved hepatocytes using tandem mass spectrometry (LC-MS/MS).

[5] = Kinetic solubility in PBS buffer; assay type: physicochemical; conditions: aqueous buffer, kinetic from dmso stock, compound suspended at 300 μM, 25° C.
Method: Kinetic solubility was determined by suspending compound at 300 μM at pH 1.2 and 7.4 in PBS buffer. The suspension was equilibrated by shaking at 25° C. at 1100 RPM for 2 hours and then pH was measured following filtration. The filtrate was then diluted by an appropriate factor (e.g. 100-fold). Quantitation was done by LC-MS/MS with reference to a standard solution.

[6] = Permeability in Caco-2 cell monolayer; assay type: in vitro ADME; conditions: human; for efflux ratio: Caco-2; for Papp A→B: Caco-2, apical to basolateral; for Papp B→A: Caco-2, basolateral to apical
Method: The intestinal permeability of compound(s) was evaluated in Caco-2 cells by assessing transport across the cell monolayer in the apical to basolateral (A-B) direction. Active efflux was also assessed by measuring transport in the basolateral to apical (BA) direction which enables evaluation of the efflux ratio. Analysis of transport is quantified by tandem mass spectrometry (LC-MS/MS).

[7] = pH 1.2, PBS buffer, read-out: Kinetic Solubility pH = 1.2 (300 μM)
[8] = pH 7.4, PBS buffer, read-out: Kinetic Solubility pH = 7.4 (300 μM)

Structure (SMILES)	microsomal CLint [1] [µL/min/mg]	half-life [1] [h]	Human PS t1/2 (min) [2]	microsomal CLint [3] [µL/min/mg]	half-life [3] [h]	microsomal CLint [4] [µL/min/mg]	half-life [4] [h]	solubility kinetic at 2 h [5, 7] [µM]	solubility kinetic at 2 h [5, 8] [µM]	efflux ratio [6]	Papp A→B [6] [nm/s]	Papp B→A [6] [nm/s]	half-life [2] [h]
COc1cc2c(cc1OC)[C@H]1C[C@@H](OC(=O)CCCCCCC(=O)O)[C@H](CC(C)C)CN1CC2 [Example 5, 8-[[(2R,3R,11bR)-9,10-dimethoxy-3-(2-methylpropyl)-1H,2H,3H,4H,6H,7H,11bH-pyrido[2,1-a]isoquinolin-2-yl]oxy]-8-oxooctanoic acid]	3.16	3.89	∞	1.04	56.8	50.7	0.456	276 (≈ 131 µg/mL)	306 (≈ 146 µg/mL)	0.98	224	220	–
COc1cc2c(cc1OC)[C@H]1C[C@@H](OC(=O)/C=C/C(=O)N[C@@H](Cc3ccccc3)C(=O)O)[C@H](CC(C)C)CN1CC2 [Example 12, (2S)-2-[(2E)-4-[[(2R,3R,11bR)-9,10-dimethoxy-3-(2-methylpropyl)-1H,2H,3H,4H,6H,7H,11bH-pyrido[2,1-a]isoquinolin-2-yl]oxy]-4-oxobut-2-enamido]-3-phenylpropanoic acid]	1.42	11.5	–	2.38	8.91	6.27	3.69	320 (≈ 181 µg/mL)	306 (≈ 173 µg/mL)	85.4	1.3	113	0.238
COc1cc2c(cc1OC)[C@H]1C[C@@H](OC(=O)/C=C\C(=O)N[C@H](C(=O)O)C(C)C)[C@H](CC(C)C)CN1CC2 [Example 13, (2S)-2-[(2Z)-4-[[(2R,3R,11bR)-9,10-dimethoxy-3-(2-methylpropyl)-1H,2H,3H,4H,6H,7H,11bH-pyrido[2,1-a]isoquinolin-2-yl]oxy]-4-oxobut-2-enamido]-3-methylbutanoic acid]	2.17	5.76	–	0.35	51.1	4.75	4.89	303 (≈ 156 µg/mL)	300 (≈ 155 µg/mL)	> 402	< 0.1	40.2	2.38

More lines, now with the values ahead:

microsomal CLint [1] [µL/min/mg]	half-life [1] [h]	Human PS t1/2 (min) [2]	microsomal CLint [3] [µL/min/mg]	half-life [3] [h]	microsomal CLint [4] [µL/min/mg]	half-life [4] [h]	solubility kinetic at 2 h [5, 7] [µM]	solubility kinetic at 2 h [5, 8] [µM]	efflux ratio [6]	Papp A→B [6] [nm/s]	Papp B→A [6] [nm/s]	half-life [2] [h]	Structure (SMILES)
65.8	0.176	–	922	0.0125	282	0.082	311 (≈ 143 µg/mL)	5.84 (≈ 2.7 µg/mL)	0.84	17.8	15	> 13.5	COc1cc2c(cc1OC)[C@H]1C[C@@H](OC(=O)CCC(=O)OC(C)C)[C@H](CC(C)C)CN1CC2 [Example 7, (2R,3R,11bR)-9,10-dimethoxy-3-(2-methylpropyl)-1H,2H,3H,4H,6H,7H,11bH-pyrido[2,1-a]isoquinolin-2-yl 1-isopropyl butanedioate]
16.3	0.708	∞	613	0.0188	121	0.191	292 (≈ 149 µg/mL)	0.0018 (≈ 0.000919 µg/mL)	0.95	2.02	1.91	–	COc1cc2c(cc1OC)[C@H]1C[C@@H](OC(=O)c3cncc(C(=O)OC(C)C)c3)[C@H](CC(C)C)CN1CC2 [Example 9, 3-((2R,3R,11bR)-3-isobutyl-9,10-dimethoxy-1,3,4,6,7,11b-hexahydro-2H-pyrido[2,1-a]isoquinolin-2-yl) 5-isopropyl pyridine-3,5-dicarboxylate]
